Experimental data as given in BindingDB's records for doi:10.1021/bi9007287 (Max Planck Research, 2009).

Key:
[1] = biological target: Peptidyl-prolyl cis-trans isomerase B (Human, UniProt P23284); experiment: PPIase Assay; conditions: pH 7.8; 5 °C
[2] = biological target: Peptidyl-prolyl cis-trans isomerase A (Homo sapiens, UniProt P62937); experiment: PPIase Assay; conditions: pH 7.8; 5 °C
[3] = biological target: Peptidyl-prolyl cis-trans isomerase H (Homo sapiens, UniProt O43447); experiment: PPIase Assay; conditions: pH 7.8; 5 °C
[4] = biological target: T1, Peptidyl-prolyl cis-trans isomerase-like 1 (Homo sapiens, UniProt Q9Y3C6); experiment: PPIase Assay; conditions: pH 7.8; 5 °C
T1 sequence (Q9Y3C6 whole entry): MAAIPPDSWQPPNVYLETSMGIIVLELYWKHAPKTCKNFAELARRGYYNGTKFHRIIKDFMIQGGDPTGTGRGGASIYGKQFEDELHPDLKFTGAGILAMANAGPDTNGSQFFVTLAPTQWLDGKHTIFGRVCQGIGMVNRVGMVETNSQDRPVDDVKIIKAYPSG

[5] = biological target: Peptidyl-prolyl cis-trans isomerase C (Mus musculus) (UniProt P30412); experiment: PPIase activity assay were performed at 283 K in quartz cuvettes with a path length of 1 cm under vigorous stirring with a Hewlett-Packard 8453A UV-vis spectrophotometer in 35 mM HEPES buffer (pH 7.8).
Chain of Peptidyl-prolyl cis-trans isomerase C (Mus musculus) (P30412 whole entry, looked up): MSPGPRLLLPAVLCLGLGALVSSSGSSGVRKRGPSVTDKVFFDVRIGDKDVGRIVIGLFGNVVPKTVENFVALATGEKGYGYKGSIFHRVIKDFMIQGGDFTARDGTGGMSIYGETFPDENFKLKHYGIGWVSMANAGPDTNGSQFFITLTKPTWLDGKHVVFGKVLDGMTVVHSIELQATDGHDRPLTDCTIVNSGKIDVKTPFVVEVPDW

Chain of Peptidyl-prolyl cis-trans isomerase A (P62937 whole entry): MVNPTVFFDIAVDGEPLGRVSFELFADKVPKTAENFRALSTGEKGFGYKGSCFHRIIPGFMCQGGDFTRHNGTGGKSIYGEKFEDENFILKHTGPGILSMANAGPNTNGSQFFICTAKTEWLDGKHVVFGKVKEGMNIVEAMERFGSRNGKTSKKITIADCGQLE
Chain of Peptidyl-prolyl cis-trans isomerase B (P23284 whole entry): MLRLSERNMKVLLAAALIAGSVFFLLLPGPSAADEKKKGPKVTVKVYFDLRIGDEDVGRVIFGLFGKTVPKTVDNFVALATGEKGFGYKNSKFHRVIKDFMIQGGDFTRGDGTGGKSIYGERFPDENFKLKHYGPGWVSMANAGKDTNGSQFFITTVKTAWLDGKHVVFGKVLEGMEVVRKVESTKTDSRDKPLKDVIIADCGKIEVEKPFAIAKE
Chain of Peptidyl-prolyl cis-trans isomerase H (O43447 whole entry): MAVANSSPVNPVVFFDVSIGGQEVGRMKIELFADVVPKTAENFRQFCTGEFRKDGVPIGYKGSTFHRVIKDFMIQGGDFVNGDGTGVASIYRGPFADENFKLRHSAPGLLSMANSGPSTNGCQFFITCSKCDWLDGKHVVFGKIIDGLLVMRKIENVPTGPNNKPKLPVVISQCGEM

Compound | Ki [1] | Ki [2] | Ki [3] | Ki [4] | Ki [5]
COc1ccc2c(c1)C(=O)C1(Cc3ccccc3C1)O2 [Benzofuranone, 9] | 63 µM | > 100 µM |  |  | 
O=C1Oc2ccccc2C12Cc1ccccc1C2 [Benzofuranone, 8] | > 100 µM | > 100 µM |  |  | 
O=C(c1cc(-c2cc(F)cc([N+](=O)[O-])c2O)cc([N+](=O)[O-])c1O)C1CCc2ccccc21 (centres undefined) [Aryl 1-indanylketone, 1] | > 100 µM | 0.52 µM | > 100 µM | 29 µM | > 100 µM
COc1ccc2c(c1)C1(CC(C)c3ccccc31)C(=O)O2 (centres undefined) [Benzofuranone, 7] | > 100 µM | 21 µM |  |  | 

Second part, led by results:

Ki [1] | Ki [2] | Compound | Ki [3] | Ki [4] | Ki [5]
2.1 µM | 1.2 µM | COc1ccc(-c2ccc(OC(F)(F)F)cc2)cc1C(=O)C1CCc2ccccc21 (centres undefined) [Aryl 1-indanylketone, 4] |  |  | 
12 µM | 0.3 µM | Nc1cc(F)cc(-c2ccc(O)c(C(=O)C3CCc4ccccc43)c2)c1O (centres undefined) [Aryl 1-indanylketone, 2] | > 100 µM | > 100 µM | > 100 µM
8.6 µM | 1.7 µM | COc1ccc(F)cc1-c1cc(N)c(O)c(C(=O)C2CCc3ccccc32)c1 (centres undefined) [Aryl 1-indanylketone, 3] |  |  | 
> 100 µM | 10 µM | COc1ccc(C(F)(F)F)cc1C(=O)C1CCc2ccccc21 (centres undefined) [Aryl 1-indanylketone, 5] |  |  | 
> 100 µM | > 100 µM | COc1ccc(F)cc1C(=O)C1(C)CCc2ccccc21 (centres undefined) [Aryl 1-indanylketone, 6] |  |  | 
